This note sets out measurements from patent US8173694B2, “Therapeutic agent” (Pentraxin Therapeutics Limited, priority 2001, dated 2012).

Molecules are shown by their SMILES.

This experiment deals with T1, isolated pure human CRP (Homo sapiens, UniProt P02741).
T1 sequence (P02741 19-224): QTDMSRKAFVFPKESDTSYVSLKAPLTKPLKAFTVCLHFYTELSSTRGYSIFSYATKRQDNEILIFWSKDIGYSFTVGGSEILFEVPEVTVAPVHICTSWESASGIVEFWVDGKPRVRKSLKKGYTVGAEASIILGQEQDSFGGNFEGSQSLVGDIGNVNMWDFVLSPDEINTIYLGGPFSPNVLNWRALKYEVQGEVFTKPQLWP
Put plainly: Size exclusion chromatography of isolated pure CRP mixed with drug. It counts as binding. The method, then:
C-reactive protein (CRP) is a pentraxin closely related to SAP. Samples of isolated pure human SAP or CRP were mixed with (R)-1-[6-(R)-2-Carboxy-pyrrolidin-1-yl]-6-oxo-hexanoyl]pyrrolidine-2-carboxylic acid at the molar ratios shown, with respect to pentraxin protomer, in physiological ionic strength Tris buffered saline pH 8.0, and analysed by size exclusion chromatography precisely as described previously (14). The mixtures and the column eluants contained either no calcium ions or 2 mM calcium, and the concentrations of drug appropriate to maintain the molar ratios indicated above. In the absence of a specific ligand to which it can bind, purified human SAP is insoluble in the presence of calcium and elutes as high molecular weight aggregates in the void volume of the column (14). However in the absence of calcium and ligand, isolated SAP alone forms stable decamers, providing an excellent marker for the elution volume of this molecular assembly (14). Human CRP is a stable pentamer either in the presence or absence of calcium and thus provides a robust marker for the elution position of that molecular form (14).

Setting [1] is: drug:protein 1:1, calcium present.
The mark [2] stands for this setting: drug:protein 10:1, calcium present.

For `O=C(O)[C@H]1CCCN1C(=O)CCCCC(=O)N1CCC[C@@H]1C(=O)O` [(R)-1-[6-(R)-2-Carboxy-pyrrolidin-1-yl]-6-oxo-hexanoyl]pyrrolidine-2-carboxylic acid], under setting [1], the “Elution volume” value was determined as 12.58 mL and the Molecular assembly result is given as “Pentamer”. Under setting [2], the “Elution volume” value came out at 11.96 mL and the Molecular assembly entry is “Pentamer”.
